IC50 and Ratio IC50 data for 10 compounds are collected here from ChEMBL document CHEMBL4390687, “Dispiropyrrolidinyl-piperidone embedded indeno[1,2-b]quinoxaline heterocyclic hybrids: Synthesis, cholinesterase inhibitory activity and their molecular docking simulation” (Bioorg Med Chem, 2019).

One experiment deals with Cholinesterase (Equus caballus, UniProt P81908). As to the kind of experiment: Inhibition of equine serum BChE using butyrylthiocholine chloride as substrate preincubated for 15 mins followed by substrate addition and measured after 30 mins by Ellman's method. In general terms: Ellman's reagent forms a yellow product with free thiols.
Cholinesterase, sequence (P81908 whole entry): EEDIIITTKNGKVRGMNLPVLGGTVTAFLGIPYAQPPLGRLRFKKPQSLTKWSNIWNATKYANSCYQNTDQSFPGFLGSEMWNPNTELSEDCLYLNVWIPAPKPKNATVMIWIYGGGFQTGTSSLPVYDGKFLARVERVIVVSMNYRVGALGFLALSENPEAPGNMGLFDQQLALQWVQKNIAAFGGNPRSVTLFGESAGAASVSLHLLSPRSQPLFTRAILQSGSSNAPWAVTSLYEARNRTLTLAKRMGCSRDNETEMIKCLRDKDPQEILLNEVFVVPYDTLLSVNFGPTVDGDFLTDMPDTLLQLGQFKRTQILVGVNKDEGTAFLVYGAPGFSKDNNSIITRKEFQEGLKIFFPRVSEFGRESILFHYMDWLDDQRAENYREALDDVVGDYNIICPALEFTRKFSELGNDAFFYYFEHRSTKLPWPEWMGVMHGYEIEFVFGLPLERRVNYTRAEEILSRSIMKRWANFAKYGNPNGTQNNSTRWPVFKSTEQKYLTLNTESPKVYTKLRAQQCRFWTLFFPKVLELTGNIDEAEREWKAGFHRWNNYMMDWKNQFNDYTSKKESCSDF
The next experiment concerns the target Acetylcholinesterase (Electrophorus electricus, UniProt O42275). As to the kind of experiment: Inhibition of electric eel AChE using acetylthiocholine iodide as substrate preincubated for 15 mins followed by substrate addition and measured after 30 mins by Ellman's method.
The nature of experiment [1]: Selectivity index, ratio of IC50 for equine serum BChE to IC50 for electric eel AChE.
Experiment [2] is described as follows: Selectivity index, ratio of IC50 for electric eel AChE to IC50 for equine serum BChE.

Acetylcholinesterase, sequence (O42275 whole entry): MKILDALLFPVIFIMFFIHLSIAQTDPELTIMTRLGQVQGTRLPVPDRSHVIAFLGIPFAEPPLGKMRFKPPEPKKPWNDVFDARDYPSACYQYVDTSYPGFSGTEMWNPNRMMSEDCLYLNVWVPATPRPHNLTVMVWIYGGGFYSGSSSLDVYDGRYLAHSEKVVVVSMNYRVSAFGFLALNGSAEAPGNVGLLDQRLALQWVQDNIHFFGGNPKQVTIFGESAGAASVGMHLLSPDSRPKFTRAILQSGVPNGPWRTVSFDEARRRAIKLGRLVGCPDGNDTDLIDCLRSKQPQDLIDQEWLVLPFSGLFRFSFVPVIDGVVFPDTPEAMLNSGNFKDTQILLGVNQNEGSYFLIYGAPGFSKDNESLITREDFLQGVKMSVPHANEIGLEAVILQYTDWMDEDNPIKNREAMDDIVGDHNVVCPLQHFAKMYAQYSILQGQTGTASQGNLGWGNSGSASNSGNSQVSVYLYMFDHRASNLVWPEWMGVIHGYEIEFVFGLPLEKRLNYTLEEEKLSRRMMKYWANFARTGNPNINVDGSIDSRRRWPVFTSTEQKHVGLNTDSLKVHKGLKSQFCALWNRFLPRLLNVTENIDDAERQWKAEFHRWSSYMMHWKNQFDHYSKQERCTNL

By IC50 is commonly meant the point on the concentration scale where inhibition reaches its midpoint. A low value points to inhibition by little substance. Regarding `Cc1cccc(/C=C2\CNCC3(C2=O)C(c2cccc(C)c2)C(Cc2c[nH]c4ccccc24)NC32c3ccccc3C3N=c4ccccc4=NC32)c1` (stereo not given), the concentration for half-maximal inhibition (IC50) came to 15.2 µM on Cholinesterase and 6.84 µM against Acetylcholinesterase. Also, the Ratio IC50 amounted to 2.22 in experiment [1] and 0.45 in experiment [2].
In the same order, the values of `O=C1/C(=C/c2ccccc2Cl)CNCC12C(c1ccccc1Cl)C(Cc1c[nH]c3ccccc13)NC21c2ccccc2C2N=c3ccccc3=NC21` (stereo not given) are 26.7 µM, 16.4 µM, 1.63 and 0.62.
For `O=C1/C(=C/c2ccc(Cl)cc2Cl)CNCC12C(c1ccc(Cl)cc1Cl)C(Cc1c[nH]c3ccccc13)NC21c2ccccc2C2N=c3ccccc3=NC21` (stereo not given) the same measures were 17.6 µM, 10.2 µM, 1.73 and 0.58.
In the same order, the values of `COc1ccc(/C=C2\CNCC3(C2=O)C(c2ccc(OC)cc2)C(Cc2c[nH]c4ccccc24)NC32c3ccccc3C3N=c4ccccc4=NC32)cc1` (stereo not given) are 23.2 µM, 7.2 µM, 3.22 and 0.31.
Consider `O=C1/C(=C/c2cccc([N+](=O)[O-])c2)CNCC12C(c1cccc([N+](=O)[O-])c1)C(Cc1c[nH]c3ccccc13)NC21c2ccccc2C2N=c3ccccc3=NC21` (stereo not given), for which the half-inhibitory concentration (IC50) on Cholinesterase came to 10.5 µM; at Acetylcholinesterase, 2.01 µM. Further, the Ratio IC50 in experiment [1] was found to be 5.2; in experiment [2], 0.19.
In the same order, the values of `Cc1ccc(/C=C2\CNCC3(C2=O)C(c2ccc(C)cc2)C(Cc2c[nH]c4ccccc24)NC32c3ccccc3C3N=c4ccccc4=NC32)cc1` (stereo not given) are 12.4 µM, 3.22 µM, 3.85 and 0.26.
On to `O=C1/C(=C/c2ccc(Cl)cc2)CNCC12C(c1ccc(Cl)cc1)C(Cc1c[nH]c3ccccc13)NC21c2ccccc2C2N=c3ccccc3=NC21` (stereo not given), for which the values for the half-maximal inhibitory concentration (IC50) on Cholinesterase and against Acetylcholinesterase were 18.8 µM and 12.5 µM, respectively. For the same compound, the Ratio IC50 stood at 1.5 in experiment [1] and 0.67 in experiment [2].
`O=C1/C(=C/c2ccc(Br)cc2)CNCC12C(c1ccc(Br)cc1)C(Cc1c[nH]c3ccccc13)NC21c2ccccc2C2N=c3ccccc3=NC21` (stereo not given): the concentration for half-maximal inhibition (IC50) at Cholinesterase turned out to be 20.6 µM; against Acetylcholinesterase it was 15.2 µM. In addition, the Ratio IC50 in experiment [1] came to 1.35; in experiment [2], 0.74.
On to `Cc1ccccc1/C=C1\CNCC2(C1=O)C(c1ccccc1C)C(Cc1c[nH]c3ccccc13)NC21c2ccccc2C2N=c3ccccc3=NC21` (stereo not given), for which the IC50 against Cholinesterase was determined as 14.7 µM; at Acetylcholinesterase it was 5.8 µM. Further, the Ratio IC50 stood at 2.54 in experiment [1] and 0.39 in experiment [2].
In the same order, the values of `O=C1/C(=C/c2ccccc2)CNCC12C(c1ccccc1)C(Cc1c[nH]c3ccccc13)NC21c2ccccc2C2N=c3ccccc3=NC21` (stereo not given) are 14.2 µM, 7.35 µM, 1.93 and 0.52.
